Test results from article PMC4211885 (PLoS ONE, 2014).

Columns and labels:
OA/TAMac receptor = OA/TAMac receptor (Macrobrachium rosenbergii, UniProt D9U2B9); test: Agonist-evoked direct-current (ID) in Xenopus oocytes injected with OA/TAMac cRNA, two-electrode voltage clamp; format: cell-based; settings: for ID response amplitude (mean ± s.d.): 10 µM, 10 second focal application, OA/TAMac and CFTR co-injected, n = 11 oocytes; for EC50: voltage clamped at −60 mV, approximate, estimated graphically from plot, read-out: EC50 of transmitter evoked direct-current (ID), normalized I/Imax; for Spearman rank-order correlation (rS) between rise rate and peak amplitude of evoked ID: all responses of the concentration series of Figure 3C
Excerpt: We used Xenopus oocytes to express the prawn OA/TAMac receptor by injection of synthetic cRNA. The injection of foreign RNA into Xenopus oocytes typically induces the expression of multiple native chloride and potassium channels. Ligand evoked currents resulting from modulation of these channels have been used extensively in the characterization of heterologously expressed GPCRs. Oocytes are typically voltage clamped at a constant membrane potential around −60 mV and deviations in holding potential are measured. We refer to currents measured in this way as direct-currents (ID) (after) in order to distinguish them from the voltage-evoked transient current (ICl-T) described later.
Both flow rate and pulse duration were precisely controlled and comparisons were made relative to currents within single oocytes.
To characterize the dose dependence of ID, series of single transmitters were applied to different individual oocytes injected with OA/TAMac. Oocytes were voltage clamped at −60 mV and tyramine, (+/−)-octopamine, or dopamine were applied using 30 second perfusion-switched applications (see methods for more details).
(§1) Recordings were performed 1–3 days post-injection at room temperature (20–22°C). Currents were recorded under two-electrode voltage clamp using an Axoclamp 900a amplifier (Molecular Devices LLC, CA USA). A digidata 1440a analog to digital converter was used in conjunction with pCLAMP 10 software (Molecular Devices) for data acquisition and to generate voltage commands. For each step protocol or chemical application data were typically sampled at 5 KHz and filtered digitally at 1 KHz. For the duration of each experiment the current was also continuously sampled at 1 kHz using a separate minidigi 1A digitizer (Molecular Devices). Glass microelectrodes were pulled from filamented 1.2 mm thin wall borosilicate glass (World Precision Instruments, Sarasota, FL) using a Sutter Instruments P-97 puller. They were filled with 3 M KCl and had resistances of 0.8–2.0 MΩ. A silver chloride pellet immersed in 3 M KCl and connected to the bath via a 3% agar bridge made with 3 M KCl was used as the reference electrode.
Oocytes were continuously perfused at 1.5 mL/min either with ND 96 or test compounds dissolved in ND 96. Two types of application were used over the course of this study, a perfusion-switch or a focal application. In all cases solutions were delivered through a gravity fed system and switched using a computer controlled bank of pinch valves. Flow rate was regulated with a manual screw-type pinch valve.
For focal application a triple barrel pipette with three parallel independently switched channels was positioned about 1 mm from the surface of the oocyte, up-stream of a cross flow, at an approximate angle of 45 degrees (schematic shown in Fig. S8). Drugs were focally applied during continuous perfusion with ND 96.
In experiments where more than three drugs or concentrations were tested a precisely controlled 30 s perfusion-switch was used. Up to eight channels were connected to the bath via an 8-way manifold. There was an approximately 6–7 s delay for solutions to traverse the dead volume between the manifold and the bath.

Uninjected oocytes = test: Direct-current response of uninjected oocytes (control); format: cell-based, Xenopus laevis; settings: n = 5
Protocol: We first tested receptor-injected oocytes for the occurrence of a response to biogenic amines. Applications of tyramine, octopamine, or dopamine produced an inward ID, typically ranging between 50 nA and 500 nA, under a constant holding potential of −60 mV. […] The amplitude of tyramine evoked ID at concentrations below 10 µM was greater than octopamine or dopamine within the same oocyte (Figs. 2A and S2). […] Instead it would rise and then begin to decline prior to the removal of agonist (dotted line). However, at high concentrations, above 100 µM, ID appeared to approach a stable plateau (Fig. 2B).
as §1
Supplementary file pone.0111314.s001.tif: Figure S1 Direct-current (ID) responses are specifically evoked by agonists in oocytes injected with OA/TAMac only. […] The trace is representative of an experimental set of 5 oocytes. Additional uninjected oocytes were tested with various experimental sets throughout the course of this study. (B) A typical preliminary test of agonist sensitivity. Injection of OA/TAMac cRNA alone is sufficient to confer sensitivity to OA. […] Applications are approximately 30 seconds in the upper trace. (C) The response of clonidine (CN), synephrine (SN), and OA within a single OA/TAMac injected oocyte. […] All drugs are applied for 30 seconds each as indicated by black rectangles. Agonist evoked currents are measured within oocytes relative to the octopamine response at 50 µM. The comparison is made to OA because the amplitude of the tyramine response becomes small at concentrations above 10 µM. This is due to a mechanistically undefined process not seen with any other agonist we tested. Note that TA is the first compound applied to a naïve oocyte in this example. […] (TIF) Click here for additional data file.

[1] = 30 second perfusion-switched applications, −60 mV

Sequence of OA/TAMac receptor (D9U2B9 entry or part of it): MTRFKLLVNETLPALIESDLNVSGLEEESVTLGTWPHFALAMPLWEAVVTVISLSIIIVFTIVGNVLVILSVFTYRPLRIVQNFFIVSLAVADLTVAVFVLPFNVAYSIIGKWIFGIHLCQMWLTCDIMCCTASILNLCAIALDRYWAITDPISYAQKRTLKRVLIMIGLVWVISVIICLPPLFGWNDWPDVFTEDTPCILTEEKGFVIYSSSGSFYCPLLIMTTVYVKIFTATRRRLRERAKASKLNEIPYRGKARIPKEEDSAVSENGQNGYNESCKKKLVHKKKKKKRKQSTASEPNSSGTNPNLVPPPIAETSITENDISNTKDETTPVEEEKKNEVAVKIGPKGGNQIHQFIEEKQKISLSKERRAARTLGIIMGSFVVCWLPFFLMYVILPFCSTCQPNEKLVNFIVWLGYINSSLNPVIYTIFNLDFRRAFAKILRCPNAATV

Row | Structure (SMILES) | ID response amplitude (mean ± s.d.) (OA/TAMac receptor; −60 mV) [nA] | Mean ID response amplitude in the agonist set (OA/TAMac receptor; 50 µM, 30 second perfusion-switch, n = 6, standard deviation 32 nA) [nA] | EC50 (OA/TAMac receptor; 30 second perfusion-switch) [µM] | Concentration at which evoked inward currents became visible/apparent (OA/TAMac receptor; [1]) | Spearman rank-order correlation (rS) between rise rate and peak amplitude of evoked ID (OA/TAMac receptor) | Response of uninjected oocytes (Uninjected oocytes) | Response of uninjected oocytes (Uninjected oocytes; listed as OA) | Concentration at which the response reached maximum amplitude (OA/TAMac receptor; [1]) | Response of uninjected oocytes (Uninjected oocytes; listed as TA)
1 | NCC(O)c1ccc(O)cc1 (racemic) [octopamine, (+/−)-octopamine] | 75±55 | 119 | ~21 | around 1 µM | 0.93 | no response | do not respond | – | –
2 | NCCc1ccc(O)cc1 [tyramine] | 229±152 | – | ~0.2 | around 0.1 µM | 0.52 | no response | – | around 10 µM | do not respond
